Test results reported in patent publication US8173133B2, “Acyl pseudodipeptides which carry a functionalized auxiliary arm” (OM Pharma, priority 1999, dated 2012).
Where “and” joins values, the source holds several entries; their conditions need not be identical. Equal values may be shown once.

What was measured:
(NANP)6P2P30 antigen = experiment: (NANP)6P2P30 murine immunization model: anti-(NANP)6P2P30 IgG (ELISA); type: in vivo, BALB/c mice; conditions: two s.c. shots, serum at 5 weeks, FIG. 79
K562 cells = experiment: activation of NK cell cytotoxicity against K562 target cells (LDH release); type: cell-based, human
Experimental: PBMC were recovered from buffy coats according to the procedure previously described in example 4.6. […] Cells were incubated under such conditions for 24 hours. K562 cells (human leukemia cell line, ATCC #CCL 243, 20110-2209 Manassas (Va.), U.S.A.) were maintained in culture using RPMI medium containing 10% FCS and subjected to 2 passages per week.
In order to make cytotoxicity measurement, PBMC and K562 cells were washed twice in HBSS and resuspended in Phenol Red-free RPMI medium containing 5% FCS. PBMC were divided into a round bottom 96-well plate so as to achieve a PBMC/target ratio of 20/1, 10/1 and 5/1 in 50 μl volume. 5000 K562 cells (target) were added in each well using 50 μl of Phenol Red-free RPMI. Final volume was 100 μl. The plate was centrifuged to promote contact then incubated at 37° C. for 4 hours.
Cytotoxicity was assayed using a non radioactive CytoTox 96 kit based on measuring LDH release during cell lysis (kit #G1780, batch #124100, Promega, Madison, Wis.) according to the supplier's instructions.
The percentage of cytotoxicity was calculated according to the following equation: […]

[1] = system: murine predendritic cells (CD-DM); experiment: maturation of murine predendritic cells into dendritic cells (flow cytometry of surface markers); type: cell-based, C57BI/6 mice; conditions: for CD40 MFI: 48 hour
Experimental: The marrow was aspirated from the femur and tibia bones of (C57BI/6, 6 to 8 week-old) mice. The marrow suspension was screened through a 70 μm cell sieve in order to obtain a single cell suspension. Marrow cells were resuspended into Isocove's modified Dulbecco medium (IMDM) supplemented with 10% of heat inactivated foetal calf serum (iFCS) and antibiotics. Cells were incubated overnight at 37° C., under CO2 and a moisture saturated atmosphere, inside 6-well microtiter plates. Next day (day 0), non adherent cells were collected and washed. Viable cells were counted by trypan blue dye exclusion test. Cell concentration was adjusted to 2×10^5 cells/ml in IMDM containing […] and 20 ng/ml of murine recombinant IL-4 (rmIL-4) and plates were further incubated. On the 3rd day, there were added freshly prepared mGM-CSF and rmIL-4 at a concentration of 10 ng/ml. On the 6th day, non adherent cells were collected, washed and counted by trypan blue dye exclusion. Cell concentration was adjusted to 2×10^5 cells/ml in IMDM containing 10 ng/ml of rmGM-CSF and rmIL-4, and plates were further incubated. On the 8th day, non adherent cells made up of both mature and immature dendritic cells (CD-DM) were collected and used in product co-incubation experiments.
After a 48 hour incubation period, cells were collected and stored for flow cytometry analysis Flow cytometry analysis CD-DM were washed with PBS containing 2% iFCS and 0.01% sodium azide (FACS buffer). Then, cells were incubated on ice for 30 minutes with optimal concentrations of anti-CD86 antibody; anti-CD40 antibody, FITC conjugated anti-MCHII antibody, and […]. Then, cells were washed 3 times. Labeling of anti-CD86 and anti-CD40 antibodies was performed by incubating cells on ice for 30 minutes with peroxidase-conjugated donkey anti-rat immunoglobulins. Following incubation, cells were washed and resuspended into FACS medium. Fluorescence was measured with the aid of FACScan® flow cytometry. 15000 pulse events were analyzed per sample. Cells which had been incubated with the conjugate alone were used as a negative control.

[2] = cytotoxicity on virus-free MT-4 cells (MTT); type: cell-based; conditions: human, MT-4 cells (virus-free)
Experimental: Cytotoxicity of a given product is assessed in the same manner in the lower portion of the plate where the test is conducted by incubating serially diluted products over virus-free cells, to thereby determine the toxic effect of products on cells. The result is given as CC50, i.e. the concentration at which 50% of cells are dead due to product toxicity. Selectivity (selectivity index, SI) of a given product is defined as a CC50/IC50 ratio. This parameter is of great importance since the selectivity index of a fairly efficient product is high.

HIV-2 ROD = experiment: anti-HIV activity in MT-4 cells (MTT), HIV-2 ROD; type: cell-based
Experimental: (§1) T MT-4 lymphocyte cell line which had been transformed into a continuous cell line by an HTLV infection, a virus associated with one form of leukemia, was used to test the antiviral activity (anti-HIV) of AZT- and d4T-conjugated compounds according to the invention, respectively. A characteristic feature of such cells is lack of survival following an HIV infection. The test is based on protection provided by the product (like AZT) against this viral destructive effect. Products were tested in serially diluted solutions in a 96-well plate. In the upper portion of the microplate, products were tested by incubation at various concentrations with cells and virus (in triplicate), so as to determine the concentration of product which affords cell protection against the viral destructive effect. IC50 of the product is taken as the concentration where a 50% loss of viable cell count is recorded. Viable cell count was done with MTT, a yellow tetrazolium compound which undergoes enzymatic reduction (at the mitochondrial level in viable cells) into a purple colored formazan compound. Wells containing viable cells are purple in colour, whereas dead cells give a persistent yellow color. Measurement of optical density (O.D.) allows this effect to be quantified.

HIV-1 IIIB = experiment: anti-HIV activity in MT-4 cells (MTT), HIV-1 IIIB; type: cell-based
Experimental: as §1

[3] = pyrogenicity in the rabbit model; type: in vivo, New Zealand white rabbits; conditions: for response in ° C. average (individual values): 3 rabbits
Experimental: 15 New Zealand white rabbits are divided into the following groups: • Group 1: 1.0 mg/kg • Group 2: 0.1 mg/kg • Group 3: 0.01 mg/kg • Group 4: 0.001 mg/kg • Group 5: water for injection
On the day of testing, rabbits are tightly held and weighed in boxes designed for this purpose. Temperature probes are inserted in the rectum are
1 hour after probe insertion, temperatures (preinjection) are recorded for 90 minutes and the mean value is calculated.
Each rabbit is then administered an i.v. injection of product or control (sterile water in 0.9% NaCl) via the marginal (lateral) ear vein. Temperature is measured at 30 minute intervals for 3 hours. Difference between the preinjection average temperature and maximum temperature is calculated and reported.
If the result obtained lies in-between, the test is repeated with 3 more rabbits.

Structure (SMILES): CCCCCCCCCCCC(=O)O[C@H](CCCCCCCCCCC)CC(=O)NC(CCOP(=O)(O)O)C(=O)NCCCC(COC(=O)CCCCC(O)CO)NC(=O)C[C@H](O)CCCCCCCCCCC (stereo partly drawn) [OM-197-FV6, 3-[(R)-dodecanoyloxytetradecanoylamino]-4oxo-5-aza-9-[(R)-3-hydroxytetradecanoylamino]-decan-1,10-diol 1-dihydrogenphate 10-(6,7-dihydroxyheptanoate)]
- anti-(NANP)6P2P30 IgG serologic response ((NANP)6P2P30 antigen): greatly superior to the one observed when injecting antigen alone
- NK activity level (K562 cells; 1 μg/ml): comparable or slightly inferior to that induced by LPS
- % cytotoxicity (K562 cells; Ratio PBMC:K562 5.1): 0%
- Optical density at 490 nm, K562 + PBMC (K562 cells; Ratio PBMC:K562 5.1): 1.4
- Optical density at 490 nm, PBMC alone (K562 cells; Ratio PBMC:K562 5.1): 0.079
- % cytotoxicity (K562 cells; Ratio PBMC:K562 10.1): 12.9%
- Optical density at 490 nm, K562 + PBMC (K562 cells; Ratio PBMC:K562 10.1): 1.65
- Optical density at 490 nm, PBMC alone (K562 cells; Ratio PBMC:K562 10.1): 0.087
- % cytotoxicity (K562 cells; Ratio PBMC:K562 20.1): 38.8%
- Optical density at 490 nm, K562 + PBMC (K562 cells; Ratio PBMC:K562 20.1): 2.1
- Optical density at 490 nm, PBMC alone (K562 cells; Ratio PBMC:K562 20.1, stimulus 24 hours): 0.11

Structure (SMILES): CCCCCCCCCCCC(=O)O[C@H](CCCCCCCCCCC)CC(=O)N[C@H](CC(=O)O)C(=O)NCCC[C@H](CO)NC(=O)C[C@H](O)CCCCCCCCCCC [OM-197-MC, N—[(R)-3-dodecanoyloxytetradecanoyl]-D-aspartic acid, α-N-{(4R)-5-hydroxy-4[(R)-3-hydroxytetradecanoylamino]-pentyl}amide]
- anti-(NANP)6P2P30 IgG serologic response ((NANP)6P2P30 antigen): greatly superior to the one observed when injecting antigen alone

Structure (SMILES): CCCCCCCCCCCC(=O)O[C@H](CCCCCCCCCCC)CC(=O)N[C@H](CC(=O)O)C(=O)NCCC[C@H](COC(=O)CCCCCN)NC(=O)C[C@H](O)CCCCCCCCCCC [OM-197-MC-AC, N—[(R)-3-dodecanoyloxytetradecanoyl]-D-aspartic acid, α-N-{(4R)-5-(6-aminohexanoyloxy)-4-[(R)-3-hydroxytetradecanoylamino]pentyl}amide]
- C80 % cells ([1]; 0.1 μg/ml): 41%
- C80 MFI ([1]; 0.1 μg/ml): 66
- CD40 % cells ([1]; 0.1 μg/ml): 34%
- CD86 % cells ([1]; 0.1 μg/ml): 37%
- CD86 MFI ([1]; 0.1 μg/ml): 3504
- MHCII % cells ([1]; 0.1 μg/ml): 38%
- MHCII MFI ([1]; 0.1 μg/ml): 1597
- CD40 MFI ([1]; 0.1 μg/ml): 446
- C80 % cells ([1]; 1 μg/ml): 47%
- C80 MFI ([1]; 1 μg/ml): 73
- CD40 % cells ([1]; 1 μg/ml): 48%
- CD86 % cells ([1]; 1 μg/ml): 45%
- CD86 MFI ([1]; 1 μg/ml): 3791
- MHCII % cells ([1]; 1 μg/ml): 45%
- MHCII MFI ([1]; 1 μg/ml): 1607
- CD40 MFI ([1]; 1 μg/ml): 493
- C80 % cells ([1]; 10 μg/ml): 53%
- C80 MFI ([1]; 10 μg/ml): 97
- CD40 % cells ([1]; 10 μg/ml): 55%
- CD86 % cells ([1]; 10 μg/ml): 52%
- CD86 MFI ([1]; 10 μg/ml): 4162
- MHCII % cells ([1]; 10 μg/ml): 49%
- MHCII MFI ([1]; 10 μg/ml): 1622
- CD40 MFI ([1]; 10 μg/ml): 605

Structure (SMILES): CCCCCCCCCCCC(=O)O[C@H](CCCCCCCCCCC)CC(=O)N[C@H](CC(=O)O)C(=O)NCCC[C@H](COC(=O)CCCCCNC(=O)CCC(=O)OC[C@H]1O[C@@H](n2cc(C)c(=O)[nH]c2=O)C[C@@H]1N=[N+]=[N-])NC(=O)C[C@H](O)CCCCCCCCCCC [OM-197-MC-AC-Succ-AZT]
- CC50 [2]: > 94000 nM
- IC50 (HIV-2 ROD): 61 nM
- IC50 (HIV-1 IIIB): 51.9 nM

Structure (SMILES): CCCCCCCCCCCC(=O)O[C@H](CCCCCCCCCCC)CC(=O)N[C@H](CC(=O)O)C(=O)NCCC[C@H](COC(=O)CCCCCNC(=O)CCC(=O)OC[C@@H]1C=C[C@H](n2cc(C)c(=O)[nH]c2=O)O1)NC(=O)C[C@H](O)CCCCCCCCCCC [OM-197-MC-AC-Succ-d4T]
- CC50 [2]: ~97000 nM
- IC50 (HIV-2 ROD): 510 nM
- IC50 (HIV-1 IIIB): 963 nM

Structure (SMILES): CCCCCCCCCCCC(=O)O[C@H](CCCCCCCCCCC)CC(=O)N[C@H](CC(=O)O)C(=O)NCCC[C@H](COC(=O)CCCCC(O)CO)NC(=O)C[C@H](O)CCCCCCCCCCC (stereo partly drawn) [OM-197-MC-FV5, N—[(R)-3-dodecanoyloxytetradecanoylamino]-D-aspartic acid, α-N-{(4R)-5-hydroxy-4-[(R)-3-hydroxytetra-decanoylamino]-pentyl}amide 5-O-(6,7-dihydroxyheptanoate)]
- C80 % cells ([1]; 0.1 μg/ml): 42%
- C80 MFI ([1]; 0.1 μg/ml): 66
- CD40 % cells ([1]; 0.1 μg/ml): 33%
- CD86 % cells ([1]; 0.1 μg/ml): 37%
- CD86 MFI ([1]; 0.1 μg/ml): 3437
- MHCII % cells ([1]; 0.1 μg/ml): 40%
- MHCII MFI ([1]; 0.1 μg/ml): 1689
- CD40 MFI ([1]; 0.1 μg/ml): 442
- C80 % cells ([1]; 1 μg/ml): 45%
- C80 MFI ([1]; 1 μg/ml): 84
- CD40 % cells ([1]; 1 μg/ml): 44%
- CD86 % cells ([1]; 1 μg/ml): 43%
- CD86 MFI ([1]; 1 μg/ml): 3888
- MHCII % cells ([1]; 1 μg/ml): 43%
- MHCII MFI ([1]; 1 μg/ml): 1691
- CD40 MFI ([1]; 1 μg/ml): 517
- C80 % cells ([1]; 10 μg/ml): 48%
- C80 MFI ([1]; 10 μg/ml): 97
- CD40 % cells ([1]; 10 μg/ml): 54%
- CD86 % cells ([1]; 10 μg/ml): 51%
- CD86 MFI ([1]; 10 μg/ml): 4097
- MHCII % cells ([1]; 10 μg/ml): 48%
- MHCII MFI ([1]; 10 μg/ml): 1681
- CD40 MFI ([1]; 10 μg/ml): 630

Structure (SMILES): CCCCCCCCCCCC(=O)O[C@H](CCCCCCCCCCC)CC(=O)N[C@H](CC(=O)O)C(=O)NCCC[C@H](COP(=O)(O)O)NC(=O)C[C@H](O)CCCCCCCCCCC [OM-197-MC-MP, N—[(R)-3-dodecanoyloxytetradecanoyl]-D-aspartic acid, α-N-{(4R)-5-dihydroxyphosphoryloxy-4-[(R)-3-hydroxytetradecanoyl-amino]pentyl}amide]
- pyrogenicity Results ([3]; 0.001 mg/Kg i.v.): non pyrogenic
- response in ° C. average (individual values) ([3]; 0.001 mg/Kg i.v.): 0.35 (0.10, 0.05, 0.20) ° C. and 0.25 (0.00, 0.10, 0.15) ° C.
- pyrogenicity Results ([3]; 0.01 mg/Kg i.v.): non pyrogenic
- response in ° C. average (individual values) ([3]; 0.01 mg/Kg i.v.): 0.65 (0.00, 0.45, 0.20) ° C. and 0.35 (0.20, 0.15, 0.00) ° C.
- pyrogenicity Results ([3]; 0.1 mg/Kg i.v.): pyrogenic
- response in ° C. average (individual values) ([3]; 0.1 mg/Kg i.v.): 2.00 (1.45, 0.05, 0.50) ° C. and 2.85 (1.10, 1.20, 0.55) ° C.
- pyrogenicity Results ([3]; 1 mg/Kg i.v.): pyrogenic
- response in ° C. average (individual values) ([3]; 1 mg/Kg i.v.): 3.40 (1.50, 0.60, 1.30) ° C. and 3.25 (1.25, 1.45, 0.55) ° C.
